Data taken from PMC9698358, “The Discovery of Novel Ferulic Acid Derivatives Incorporating Substituted Isopropanolamine Moieties as Potential Tobacco Mosaic Virus Helicase Inhibitors” (International Journal of Molecular Sciences, 2022).

Key:
[1] = molecular target: T1, TMV helicase (Tobacco mosaic virus, UniProt Q9IBK4); test: ATPase activity, malachite green phosphate release; format: biochemical
T1 construct: helicase domain of the 126/183 kDa replicase

[2] = molecular target: T1, TMV helicase; test: microscale thermophoresis; format: binding

T1 sequence (Q9IBK4 entry or part of it): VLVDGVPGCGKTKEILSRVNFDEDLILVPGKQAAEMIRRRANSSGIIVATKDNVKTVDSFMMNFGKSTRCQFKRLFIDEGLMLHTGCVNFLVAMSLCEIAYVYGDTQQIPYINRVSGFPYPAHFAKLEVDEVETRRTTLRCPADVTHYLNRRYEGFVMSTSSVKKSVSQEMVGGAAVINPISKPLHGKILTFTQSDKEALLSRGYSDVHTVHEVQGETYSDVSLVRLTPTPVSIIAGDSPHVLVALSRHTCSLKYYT

In the case of `COC(=O)/C=C/c1ccc(OCC(O)CN2CCN(Cc3ccccc3C)CC2)c(OC)c1` (stereo not shown) [A31], the inhibition at 200 µM [1] is reported as 47% and the Kd [2] is reported as 13.5 µM.

`COc1cc(/C=C/C(=O)O)ccc1O` [FA, 3-methoxy-4-hydroxycinnamic acid] showed an inhibition at 200 µM [1] of 26.4%.

`COC(=O)/C=C/c1ccc(OC[C@H](O)CN2CCOCC2)c(OC)c1` [R-A19] gave an inhibition at 200 µM [1] of 50.6% and a Kd [2] of 5.4 µM.

`COC(=O)/C=C/c1ccc(OC[C@@H](O)CN2CCOCC2)c(OC)c1` [S-A19] was tested, and the inhibition at 200 µM [1] was 44.5% and the Kd [2] was 22.8 µM.
